In one experiment the test system is Aβ40. Description: In vitro BACE cell-based assay (Aβ40 sandwich ELISA, cells stably expressing APP). The settings on record: Homo sapiens, HEK293, average IC50, cell assay, HEK cells. The method, boiled down: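 Read-out is Aβ40 in cell supernatants, quantified by sandwich ELISA (capture 3 h, detection 2 h, both 4° C) with Delfia time-resolved fluorescence. Cells stably expressing APP were dosed across 10 concentrations from 100 μM or 10 μM top, 0.1% DMSO final; IC50 fitted from percent of control.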
In general terms: ELISA stands for enzyme-linked immunosorbent assay.

Another experiment relates to Abeta 40. Description: In vivo inhibition of beta-secretase: Abeta 40 reduction in CSF and brain of the rat. The settings on record: after 4 hrs; for inhibition in vivo at 10 mg/kg: 10 mpk. The source says: In Vivo Inhibition of Beta-Secretase
Several animal models, including mouse, rat, dog, and monkey, may be used to screen for inhibition of beta-secretase activity in vivo following administration of a test compound sample. Animals used in this invention can be wild type, transgenic, or gene knockout animals. For example, the Tg2576 mouse model, prepared and conducted as described in Hsiao et al., 1996, Science 274, 99-102, and other non-transgenic or gene knockout animals are useful to analyze in vivo inhibition of Amyloid beta peptide (Abeta) production in the presence of inhibitory test compounds. Generally, 2 to 18 month old Tg2576 mice, gene knockout mice or non-transgenic animals are administered test compounds formulated in vehicles, such as cyclodextran, phosphate buffers, hydroxypropyl methylcellulose or other suitable vehicles. One to twenty-four hours following the administration of compound, animals are sacrificed, and brains as well as cerebrospinal fluid (CSF) and plasma are removed for analysis of A-beta levels and drug or test compound concentrations (Dovey et al., 2001, Journal of Neurochemistry, 76,173-181) Beginning at time 0, animals are administered by oral gavage, or other means of delivery such as intravenous injection, an inhibitory test compound of up to 100 mg/kg in a standard, conventional formulation, such as 2% hydroxypropyl methylcellulose, 1% Tween80. A separate group of animals receive 2% hydroxypropyl methylcellulose, 1% Tween80 alone, containing no test compound, and serve as a vehicle-control group. At the end of the test period, animals are sacrificed and brain tissues, plasma or cerebrospinal fluid are collected. Brains are either homogenized in 10 volumes (w/v) of 0.2% diethylamine (DEA) in 50 mM NaCl (Best et al., 2005, Journal of Pharmacology and Experimental Therapeutics, 313, 902-908), or in 10 volumes of 0.5% TritonX-100 in Tris-buffered saline (pH at about 7.6). Homogenates are centrifuged at 355,000 g, 4° C. for 30 minutes. CSF or brain supernatants are then analyzed for the presence of A-beta peptide by specific sandwich ELISA assays based on ECL (Electrochemiluminescence) technology. For example, rat Abeta40 is measured using biotinylated-4G8 (Signet) as a capture antibody and Fab40 (an in-house antibody specific to the C-terminal of Abeta40) as a detection antibody. For example, 4 hours after administration of 30 mg/kg oral dose of the test compound in 2% hydroxypropyl methylcellulose, 1% Tween80 (pH2.2) to 200 g male Sprague Dawley rats, amyloid beta peptide levels are measured for reduction by X % and Y % in cerebrospinal fluid and brain, respectively, when compared to the levels measured in the vehicle-treated rats. • Actual vehicles used: Oral: 2% HPMC, 1% Tween80, pH 2.2 • IV: 5% EtOH, 45% Propylene glycol in 5% Dextrose
The compounds of the invention may be shown to reduce the formation and/or deposition of amyloid beta peptide in the cerebrospinal fluid (CSF) as well as in the brain of a mouse or rat at either 3 mpk, 10 mpk or 30 mpk (mpk=mg compound per kg weight of the animal) dosing concentrations after 4 hrs.

The target in another experiment is BACE (Homo sapiens, UniProt P56817). Description: In vitro enzymatic BACE FRET assay. Type of experiment: biochemical. The settings on record: average IC50, enzyme assay; read-out: BACE 1 FRET assay. A digest of the protocol:
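Fluorescence […] after Tris quench reports cleavage of a 50 nM quenched peptide substrate over 1 h. Beforehand, 0.2 nM enzyme sits 1 h with inhibitor dilutions. Buffer: 0.05 M acetate pH 4.2, 100 uM genapol, 10% DMSO final.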

Setting [1] is: Abeta 40, rat CSF, read-out: % reduction of rat CSF levels at 10 pmk.
Setting [2] is: Abeta 40, rat brain, read-out: % reduction of rat brain levels at 10 mpk.

Like-named read-outs stand apart in the source and are kept apart here.

Sequence of BACE (P56817 46-501, species assumed): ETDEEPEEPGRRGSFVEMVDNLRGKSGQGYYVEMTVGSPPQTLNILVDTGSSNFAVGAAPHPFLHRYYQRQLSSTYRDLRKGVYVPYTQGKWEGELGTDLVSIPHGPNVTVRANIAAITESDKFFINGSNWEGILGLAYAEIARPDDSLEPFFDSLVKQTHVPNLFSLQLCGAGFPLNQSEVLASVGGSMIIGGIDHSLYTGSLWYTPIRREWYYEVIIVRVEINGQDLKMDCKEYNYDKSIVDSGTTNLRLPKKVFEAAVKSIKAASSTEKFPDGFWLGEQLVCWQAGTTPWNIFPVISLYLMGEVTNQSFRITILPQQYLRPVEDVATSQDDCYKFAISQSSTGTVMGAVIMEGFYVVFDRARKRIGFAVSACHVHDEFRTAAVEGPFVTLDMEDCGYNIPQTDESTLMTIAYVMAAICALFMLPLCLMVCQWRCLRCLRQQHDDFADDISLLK

For the compound `NC1=N[C@@]2(COC1)c1cc(-c3cccnc3F)ccc1Oc1cnc(N3CCC(F)(F)C3)cc12` [Example 74, (5S)-3-(3,3-difluoro-1-pyrrolidinyl)-7-(2-fluoro-3-pyridinyl)-6′H-spiro[chromeno[2,3-c]pyridine-5,3′-[1,4]oxazin]-5′-amine], the IC50 in the experiment with Aβ40 was 0.8 nM; on BACE, 0.4 nM. The inhibition in vivo at 10 mg/kg was 47% in the experiment on Abeta 40 (setting [1]) and 26% in the experiment on Abeta 40 (setting [2]).
For the compound `CC(C)(C)C#Cc1cnc2c(c1)[C@]1(COCC(N)=N1)c1cc(-c3cccnc3F)ccc1O2` [Example 89, (S)-3-(3,3-dimethylbut-1-yn-1-yl)-7-(2-fluoropyridin-3-yl)-2′,6′-dihydrospiro[chromeno[2,3-b]pyridine-5,3′-[1,4]oxazin]-5′-amine], the IC50 came out at 0.4 nM with Aβ40 and 0.7 nM at BACE. Moreover, the figures for the inhibition in vivo at 10 mg/kg in the experiment on Abeta 40 (setting [1]) and in the experiment on Abeta 40 (setting [2]) were 50% and 41%, respectively.
Take `Cc1ccc(-c2cnc3c(c2)[C@]2(COCC(N)=N2)c2cc(-c4cccnc4F)ccc2O3)cc1` [Example 90, (S)-7-(2-fluoropyridin-3-yl)-3-(p-tolyl)-2′,6′-dihydrospiro[chromeno[2,3-b]pyridine-5,3′-[1,4]oxazin]-5′-amine]: the IC50 stood at 1.2 nM with Aβ40 and 0.6 nM at BACE. For the same compound, the “% reduction of rat CSF levels” value in the experiment on Abeta 40 (Abeta 40, rat CSF) was 7% at 3 mpk. Besides, the “% reduction of rat brain levels” value with Abeta 40 (Abeta 40, rat brain) stood at 0% at 3 mpk.
Consider `NC1=N[C@@]2(COC1)c1cc(-c3cccnc3F)ccc1Oc1ncc(-c3ccc(F)cc3)cc12` [Example 91, (S)-3-(4-fluorophenyl)-7-(2-fluoropyridin-3-yl)-2′,6′-dihydrospiro[chromeno[2,3-b]pyridine-5,3′-[1,4]oxazin]-5′-amine], for which the IC50 in the experiment on Aβ40 worked out at 0.7 nM; at BACE it was 0.5 nM. The results for the inhibition in vivo at 10 mg/kg in the experiment with Abeta 40 (setting [1]) and in the experiment on Abeta 40 (setting [2]) were 29% and 3%, respectively.
Turning to `NC1=N[C@@]2(CCO1)c1cc(-c3cccnc3F)ccc1Oc1c2cc(-c2ccnc(F)c2)nc1F` [Example 107, (S)-1-fluoro-7-(2-fluoropyridin-3-yl)-3-(2-fluoropyridin-4-yl)-5′,6′-dihydrospiro[chromeno[2,3-c]pyridine-5,4′-[1,3]oxazin]-2′-amine], the IC50 with Aβ40 turned out to be 1.8 nM; on BACE, 0.5 nM. The values for the inhibition in vivo at 10 mg/kg with Abeta 40 (setting [1]) and in the experiment with Abeta 40 (setting [2]) were 82% and 72%, respectively.
For `NC1=N[C@@]2(CCO1)c1cc(-c3cccnc3F)ccc1Oc1c2cc(C2=CCCOC2)nc1F` [Example 110, (S)-3-(5,6-dihydro-2H-pyran-3-yl)-1-fluoro-7-(2-fluoropyridin-3-yl)-5′,6′-dihydrospiro[chromeno[2,3-c]pyridine-5,4′-[1,3]oxazin]-2′-amine], the IC50 in the experiment on Aβ40 and at BACE was 0.5 nM throughout. Moreover, the inhibition in vivo at 10 mg/kg worked out at 86% in the experiment with Abeta 40 (setting [1]) and 79% in the experiment with Abeta 40 (setting [2]).
`NC1=N[C@@]2(CCO1)c1cc(-c3cccnc3F)ccc1Oc1cnc(C3=CCOCC3)cc12` [Example 111, (5S)-3-(3,6-dihydro-2H-pyran-4-yl)-7-(2-fluoro-3-pyridinyl)-5′,6′-dihydrospiro[chromeno[2,3-c]pyridine-5,4′-[1,3]oxazin]-2′-amine]: the IC50 stood at 2.1 nM with Aβ40 and 1.8 nM on BACE. Moreover, the figures for the inhibition in vivo at 10 mg/kg with Abeta 40 (setting [1]) and in the experiment on Abeta 40 (setting [2]) were 81% and 67%, respectively.
For the compound `NC1=N[C@@]2(COC1)c1cc(-c3cncc(F)c3)ccc1Oc1cnc(-c3ccc(F)c(F)c3)cc12` [Example 114, (S)-3-(3,4-difluorophenyl)-7-(5-fluoropyridin-3-yl)-2′,6′-dihydrospiro[chromeno[2,3-c]pyridine-5,3′-[1,4]oxazin]-5′-amine], the figures for the IC50 in the experiment on Aβ40 and on BACE were 2.3 nM and 0.4 nM, respectively. Further, the values for the inhibition in vivo at 10 mg/kg with Abeta 40 (setting [1]) and in the experiment with Abeta 40 (setting [2]) were 54% and 34%, respectively.
Take `NC1=N[C@@]2(COC1)c1cc(-c3cccnc3)ccc1Oc1cnc(-c3ccc(F)c(F)c3)cc12` [Example 115, (S)-3-(3,4-difluorophenyl)-7-(pyridin-3-yl)-2′,6′-dihydrospiro[chromeno[2,3-c]pyridine-5,3′-[1,4]oxazin]-5′-amine]: the values for the IC50 in the experiment on Aβ40 and on BACE were 1.6 nM and 0.4 nM, respectively. Moreover, the inhibition in vivo at 10 mg/kg in the experiment on Abeta 40 (setting [1]) was found to be 38%; in the experiment on Abeta 40 (setting [2]), 21%.
`CC(C)(C)COc1cc2c(cn1)Oc1ccc(-c3cccnc3)cc1[C@@]21COCC(N)=N1` [Example 119, (S)-3-(neopentyloxy)-7-(pyridin-3-yl)-2′,6′-dihydrospiro[chromeno[2,3-c]pyridine-5,3′-[1,4]oxazin]-5′-amine]: the IC50 in the experiment with Aβ40 is 0.4 nM; at BACE, 0.6 nM. Besides, the “% reduction of rat CSF levels” value in the experiment on Abeta 40 (Abeta 40, rat CSF) turned out to be 5% at 3 mpk. Moreover, in the experiment with Abeta 40 (Abeta 40, rat brain), the “% reduction of rat brain levels” value is on record as 6% at 3 mpk.
The like results for `CC(C)(C)COc1cc2c(cn1)Oc1ccc(-c3cncc(F)c3)cc1[C@@]21COCC(N)=N1` [Example 120, (S)-7-(5-fluoropyridin-3-yl)-3-(neopentyloxy)-2′,6′-dihydrospiro[chromeno[2,3-c]pyridine-5,3′-[1,4]oxazin]-5′-amine] were, in that order, 0.7 nM, 0.6 nM, 30% at 3 mpk and 24% at 3 mpk.
The like results for `NC1=N[C@@]2(COC1)c1cc(-c3cncc(F)c3)ccc1Oc1cnc(N3CCC(F)(F)C3)cc12` [Example 122, (S)-3-(3,3-difluoropyrrolidin-1-yl)-7-(5-fluoropyridin-3-yl)-2′,6′-dihydrospiro[chromeno[2,3-c]pyridine-5,3′-[1,4]oxazin]-5′-amine] were, in that order, 0.3 nM, 0.6 nM, 11% at 3 mpk and 14% at 3 mpk.
In the case of `CC(C)(C#N)COc1cc2c(cn1)Oc1ccc(-c3cccc(F)c3)cc1[C@@]21COCC(N)=N1` [Example 126, (S)-3-(5′-amino-7-(3-fluorophenyl)-2′,6′-dihydrospiro[chromeno[2,3-c]pyridine-5,3′-[1,4]oxazine]-3-yloxy)-2,2-dimethylpropanenitrile], the results for the IC50 in the experiment with Aβ40 and on BACE were 1.5 nM and 0.4 nM, respectively. The inhibition in vivo at 10 mg/kg turned out to be 25% in the experiment on Abeta 40 (setting [1]) and 8% in the experiment with Abeta 40 (setting [2]).
As to `NC1=N[C@@]2(COC1)c1cc(-c3cccnc3F)ccc1Oc1c2cc(N2CCC(F)(F)CC2)nc1F` [Example 129, (S)-3-(4,4-difluoropiperidin-1-yl)-1-fluoro-7-(2-fluoropyridin-3-yl)-2′,6′-dihydrospiro[chromeno[2,3-c]pyridine-5,3′-[1,4]oxazin]-5′-amine 2,2,2-trifluoroacetate], the results for the IC50 in the experiment with Aβ40 and at BACE were 4.9 nM and 0.9 nM, respectively. Besides, the inhibition in vivo at 10 mg/kg amounted to 22% in the experiment with Abeta 40 (setting [1]) and 17% in the experiment with Abeta 40 (setting [2]).
The like results for `NC1=N[C@@]2(COC1)c1cc(-c3cccnc3F)ccc1Oc1c(F)cc(C3=CCCOC3)cc12` [Example 132, (S)-2′-(5,6-dihydro-2H-pyran-3-yl)-4′-fluoro-7′-(2-fluoropyridin-3-yl)-2,6-dihydrospiro[[1,4]oxazine-3,9′-xanthen]-5-amine] were, in that order, 1.3 nM, 0.3 nM, 38% and 25%.
